# Laboratory results published in publication PMC5224920, “Assessing the mechanism and therapeutic potential of modulators of the human Mediator complex-associated protein kinases” (eLife, 2016).
# System: 12 single or co-culture in vitro tissue models of primary cells
# Assay: Culture/co-culture cell model panel, extracellular biomarkers (DiscoveRx); as to CCL2/MCP-1: reference of the scale not given here; as to CD38: reference of the scale not given here; as to CD40: reference of the scale not given here; as to CD69: reference of the scale not given here; as to CXCL8/IL-8: reference of the scale not given here; as to CXCL9/MIG: reference of the scale not given here; as to IL-1alpha: reference of the scale not given here; as to M-CSF: reference of the scale not given here; as to PBMC Cytotoxicity: reference of the scale not given here
# Type: cell-based, human
# [1] = /Mphg Huvec+macrophages, 1.00E0 nM
# [2] = /Mphg Huvec+macrophages, 1.00E1 nM
# [3] = /Mphg Huvec+macrophages, 1.00E2 nM
# [4] = /Mphg Huvec+macrophages, 1.00E3 nM
# [5] = /Mphg Huvec+macrophages, 1.00E4 nM
structure (smiles),measurement,setting,value
Cn1ncc2cc(-c3cnc(N)c(Cl)c3N3CCC4(CCNC4=O)CC3)ccc21 [CMPD 3],CCL2/MCP-1,"/HDFNo, 1.00E4 nM",0.044
same,CD54/ICAM-1,"/HDFNo, 1.00E4 nM",-0.029
same,CD106/VCAM-1,"/HDFNo, 1.00E4 nM",0.030
same,Collagen I,"/HDFNo, 1.00E4 nM",0.106
same,Collagen III,"/HDFNo, 1.00E4 nM",0.143
same,CCL2/MCP-1,[1],0.039
same,CCL3/MIP-1alpha,[1],0.008
same,CD40,[1],0.007
same,CD69,[1],0.028
same,CD106/VCAM-1,[1],0.039
same,CXCL8/IL-8,[1],0.039
same,IL-1alpha,[1],0.034
same,M-CSF,[1],-0.015
same,SRB,[1],-0.00253
same,SRB-Mphg,[1],0.009
same,sIL-10,[1],0.013
same,CCL2/MCP-1,[2],-0.0006
same,CCL3/MIP-1alpha,[2],-0.011
same,CD40,[2],-0.026
same,CD69,[2],0.018
same,CD106/VCAM-1,[2],0.030
same,CXCL8/IL-8,[2],-0.00563
same,IL-1alpha,[2],0.012
same,M-CSF,[2],-0.035
same,SRB,[2],-0.012
same,SRB-Mphg,[2],0.002
same,sIL-10,[2],0.075
same,CCL2/MCP-1,[3],-0.061
same,CCL3/MIP-1alpha,[3],-0.020
same,CD40,[3],0.012
same,CD69,[3],0.043
same,CD106/VCAM-1,[3],0.019
same,CXCL8/IL-8,[3],-0.007
same,IL-1alpha,[3],0.025
same,M-CSF,[3],-0.036
same,SRB,[3],-0.017
same,SRB-Mphg,[3],0.012
same,sIL-10,[3],-8.75e-5
same,CCL2/MCP-1,[4],-0.073
same,CCL3/MIP-1alpha,[4],-0.030
same,CD40,[4],-0.015
same,CD69,[4],0.039
same,CD106/VCAM-1,[4],-0.014
same,CXCL8/IL-8,[4],-0.034
same,IL-1alpha,[4],-0.038
same,M-CSF,[4],-0.070
same,SRB,[4],-0.017
same,SRB-Mphg,[4],-0.00429
same,sIL-10,[4],-0.159
same,CCL2/MCP-1,[5],-0.116
same,CCL3/MIP-1alpha,[5],0.039
same,CD40,[5],-0.005
same,CD69,[5],0.023
same,CD106/VCAM-1,[5],0.022
same,CXCL8/IL-8,[5],0.007
same,IL-1alpha,[5],-0.039
same,M-CSF,[5],0.009
same,SRB,[5],-0.059
same,SRB-Mphg,[5],-0.013
same,sIL-10,[5],-0.238
same,CCL2/MCP-1,"/TH2, 1.00E0 nM",0.045
same,CCL26/Eotaxin-3,"/TH2, 1.00E0 nM",-0.045
same,CD38,"/TH2, 1.00E0 nM",0.012
same,CD40,"/TH2, 1.00E0 nM",-0.010
same,CD69,"/TH2, 1.00E0 nM",-0.0036
same,CD87/uPAR,"/TH2, 1.00E0 nM",-0.045
same,CD106/VCAM-1,"/TH2, 1.00E0 nM",0.030
same,CXCL8/IL-8,"/TH2, 1.00E0 nM",0.048
same,CXCL9/MIG,"/TH2, 1.00E0 nM",0.020
same,Collagen IV,"/TH2, 1.00E0 nM",0.013
same,PBMC Cytotoxicity,"/TH2, 1.00E0 nM",-0.00216
same,SRB,"/TH2, 1.00E0 nM",-0.019
same,sIL-17A,"/TH2, 1.00E0 nM",0.036
same,sIL-17F,"/TH2, 1.00E0 nM",-0.022
same,CCL2/MCP-1,"/TH2, 1.00E1 nM",0.002
same,CCL26/Eotaxin-3,"/TH2, 1.00E1 nM",-0.124
same,CD38,"/TH2, 1.00E1 nM",-0.011
same,CD40,"/TH2, 1.00E1 nM",-0.078
same,CD69,"/TH2, 1.00E1 nM",-0.011
same,CD87/uPAR,"/TH2, 1.00E1 nM",-0.094
same,CD106/VCAM-1,"/TH2, 1.00E1 nM",0.034
same,CXCL8/IL-8,"/TH2, 1.00E1 nM",-0.056
same,CXCL9/MIG,"/TH2, 1.00E1 nM",0.00749
same,Collagen IV,"/TH2, 1.00E1 nM",0.029
same,PBMC Cytotoxicity,"/TH2, 1.00E1 nM",-0.00148
same,SRB,"/TH2, 1.00E1 nM",-0.057
same,sIL-17A,"/TH2, 1.00E1 nM",0.095
same,sIL-17F,"/TH2, 1.00E1 nM",-0.033
same,CCL2/MCP-1,"/TH2, 1.00E2 nM",-0.036
same,CCL26/Eotaxin-3,"/TH2, 1.00E2 nM",-0.132
same,CD38,"/TH2, 1.00E2 nM",-0.00367
same,CD40,"/TH2, 1.00E2 nM",-0.095
same,CD69,"/TH2, 1.00E2 nM",-0.007
same,CD87/uPAR,"/TH2, 1.00E2 nM",-0.133
same,CD106/VCAM-1,"/TH2, 1.00E2 nM",0.023
same,CXCL8/IL-8,"/TH2, 1.00E2 nM",-0.038
same,CXCL9/MIG,"/TH2, 1.00E2 nM",0.008
same,Collagen IV,"/TH2, 1.00E2 nM",0.005
same,PBMC Cytotoxicity,"/TH2, 1.00E2 nM",-0.011
same,SRB,"/TH2, 1.00E2 nM",-0.080
same,sIL-17A,"/TH2, 1.00E2 nM",0.189
same,sIL-17F,"/TH2, 1.00E2 nM",0.137
same,CCL2/MCP-1,"/TH2, 1.00E3 nM",-0.046
same,CCL26/Eotaxin-3,"/TH2, 1.00E3 nM",-0.134
same,CD38,"/TH2, 1.00E3 nM",-0.012
same,CD40,"/TH2, 1.00E3 nM",-0.080
same,CD69,"/TH2, 1.00E3 nM",-0.021
same,CD87/uPAR,"/TH2, 1.00E3 nM",-0.141
same,CD106/VCAM-1,"/TH2, 1.00E3 nM",0.028
same,CXCL8/IL-8,"/TH2, 1.00E3 nM",-0.057
same,CXCL9/MIG,"/TH2, 1.00E3 nM",0.006
same,Collagen IV,"/TH2, 1.00E3 nM",0.010
same,PBMC Cytotoxicity,"/TH2, 1.00E3 nM",-0.023
same,SRB,"/TH2, 1.00E3 nM",-0.067
same,sIL-17A,"/TH2, 1.00E3 nM",0.134
same,sIL-17F,"/TH2, 1.00E3 nM",-0.079
same,CCL2/MCP-1,"/TH2, 1.00E4 nM",-0.053
same,CCL26/Eotaxin-3,"/TH2, 1.00E4 nM",-0.136
same,CD38,"/TH2, 1.00E4 nM",-0.016
same,CD40,"/TH2, 1.00E4 nM",-0.061
same,CD69,"/TH2, 1.00E4 nM",-0.044
same,CD87/uPAR,"/TH2, 1.00E4 nM",-0.146
same,CD106/VCAM-1,"/TH2, 1.00E4 nM",0.003
same,CXCL8/IL-8,"/TH2, 1.00E4 nM",-0.053
same,CXCL9/MIG,"/TH2, 1.00E4 nM",0.006
same,Collagen IV,"/TH2, 1.00E4 nM",0.012
same,PBMC Cytotoxicity,"/TH2, 1.00E4 nM",-0.036
same,SRB,"/TH2, 1.00E4 nM",-0.126
same,sIL-17A,"/TH2, 1.00E4 nM",0.054
same,sIL-17F,"/TH2, 1.00E4 nM",-0.082
same,CCL26/Eotaxin-3,"BENo, 1.00E0 nM",0.067
same,CD54/ICAM-1,"BENo, 1.00E0 nM",0.017
same,CD87/uPAR,"BENo, 1.00E0 nM",0.077
same,CXCL8/IL-8,"BENo, 1.00E0 nM",0.016
same,CXCL9/MIG,"BENo, 1.00E0 nM",0.068
same,CXCL10/IP-10,"BENo, 1.00E0 nM",0.115
same,CXCL11/I-TAC,"BENo, 1.00E0 nM",0.039
same,EGFR,"BENo, 1.00E0 nM",0.00071
same,HLA-DR,"BENo, 1.00E0 nM",0.048
same,IL-1alpha,"BENo, 1.00E0 nM",0.048
same,Keratin 8/18,"BENo, 1.00E0 nM",0.051
same,MMP-1,"BENo, 1.00E0 nM",0.028
same,MMP-9,"BENo, 1.00E0 nM",0.043
same,PAI-I,"BENo, 1.00E0 nM",0.010
same,SRB,"BENo, 1.00E0 nM",0.002
same,tPA,"BENo, 1.00E0 nM",0.014
same,uPA,"BENo, 1.00E0 nM",0.036
same,CCL26/Eotaxin-3,"BENo, 1.00E1 nM",-0.035
same,CD54/ICAM-1,"BENo, 1.00E1 nM",-0.015
same,CD87/uPAR,"BENo, 1.00E1 nM",0.086
same,CXCL8/IL-8,"BENo, 1.00E1 nM",-0.015
same,CXCL9/MIG,"BENo, 1.00E1 nM",0.025
same,CXCL10/IP-10,"BENo, 1.00E1 nM",0.020
same,CXCL11/I-TAC,"BENo, 1.00E1 nM",0.032
same,EGFR,"BENo, 1.00E1 nM",-0.005
same,HLA-DR,"BENo, 1.00E1 nM",0.084
same,IL-1alpha,"BENo, 1.00E1 nM",0.021
same,Keratin 8/18,"BENo, 1.00E1 nM",0.032
same,MMP-1,"BENo, 1.00E1 nM",0.022
same,MMP-9,"BENo, 1.00E1 nM",0.026
same,PAI-I,"BENo, 1.00E1 nM",0.003
same,SRB,"BENo, 1.00E1 nM",0.000675
same,tPA,"BENo, 1.00E1 nM",-0.00178
same,uPA,"BENo, 1.00E1 nM",0.034
same,CCL26/Eotaxin-3,"BENo, 1.00E2 nM",0.029
same,CD54/ICAM-1,"BENo, 1.00E2 nM",-0.086
same,CD87/uPAR,"BENo, 1.00E2 nM",0.074
same,CXCL8/IL-8,"BENo, 1.00E2 nM",0.050
same,CXCL9/MIG,"BENo, 1.00E2 nM",0.027
same,CXCL10/IP-10,"BENo, 1.00E2 nM",0.029
same,CXCL11/I-TAC,"BENo, 1.00E2 nM",0.038
same,EGFR,"BENo, 1.00E2 nM",-0.028
same,HLA-DR,"BENo, 1.00E2 nM",0.002
same,IL-1alpha,"BENo, 1.00E2 nM",0.024
same,Keratin 8/18,"BENo, 1.00E2 nM",0.019
same,MMP-1,"BENo, 1.00E2 nM",-0.044
same,MMP-9,"BENo, 1.00E2 nM",-0.012
same,PAI-I,"BENo, 1.00E2 nM",-0.079
same,SRB,"BENo, 1.00E2 nM",-0.00126
same,tPA,"BENo, 1.00E2 nM",-0.018
same,uPA,"BENo, 1.00E2 nM",0.039
same,CCL26/Eotaxin-3,"BENo, 1.00E3 nM",0.016
same,CD54/ICAM-1,"BENo, 1.00E3 nM",-0.027
same,CD87/uPAR,"BENo, 1.00E3 nM",0.042
same,CXCL8/IL-8,"BENo, 1.00E3 nM",-0.000244
same,CXCL9/MIG,"BENo, 1.00E3 nM",0.034
same,CXCL10/IP-10,"BENo, 1.00E3 nM",0.016
same,CXCL11/I-TAC,"BENo, 1.00E3 nM",0.033
same,EGFR,"BENo, 1.00E3 nM",0.028
same,HLA-DR,"BENo, 1.00E3 nM",0.049
same,IL-1alpha,"BENo, 1.00E3 nM",0.018
same,Keratin 8/18,"BENo, 1.00E3 nM",0.022
same,MMP-1,"BENo, 1.00E3 nM",-0.000325
same,MMP-9,"BENo, 1.00E3 nM",-0.016
same,PAI-I,"BENo, 1.00E3 nM",-0.078
